Results on one compound are retold here after patent publication US20100003276A1 (priority 2004, published 2010).

pIC50: −log10 of the molar value.

The test deals with Bacillus anthracis lethal factor (Bacillus anthracis, UniProt P15917). The format is biochemical. Particulars: read-out: lethal factor enzyme binding assay IC50.
Sequence of Bacillus anthracis lethal factor (P15917 34-809 limits assumed): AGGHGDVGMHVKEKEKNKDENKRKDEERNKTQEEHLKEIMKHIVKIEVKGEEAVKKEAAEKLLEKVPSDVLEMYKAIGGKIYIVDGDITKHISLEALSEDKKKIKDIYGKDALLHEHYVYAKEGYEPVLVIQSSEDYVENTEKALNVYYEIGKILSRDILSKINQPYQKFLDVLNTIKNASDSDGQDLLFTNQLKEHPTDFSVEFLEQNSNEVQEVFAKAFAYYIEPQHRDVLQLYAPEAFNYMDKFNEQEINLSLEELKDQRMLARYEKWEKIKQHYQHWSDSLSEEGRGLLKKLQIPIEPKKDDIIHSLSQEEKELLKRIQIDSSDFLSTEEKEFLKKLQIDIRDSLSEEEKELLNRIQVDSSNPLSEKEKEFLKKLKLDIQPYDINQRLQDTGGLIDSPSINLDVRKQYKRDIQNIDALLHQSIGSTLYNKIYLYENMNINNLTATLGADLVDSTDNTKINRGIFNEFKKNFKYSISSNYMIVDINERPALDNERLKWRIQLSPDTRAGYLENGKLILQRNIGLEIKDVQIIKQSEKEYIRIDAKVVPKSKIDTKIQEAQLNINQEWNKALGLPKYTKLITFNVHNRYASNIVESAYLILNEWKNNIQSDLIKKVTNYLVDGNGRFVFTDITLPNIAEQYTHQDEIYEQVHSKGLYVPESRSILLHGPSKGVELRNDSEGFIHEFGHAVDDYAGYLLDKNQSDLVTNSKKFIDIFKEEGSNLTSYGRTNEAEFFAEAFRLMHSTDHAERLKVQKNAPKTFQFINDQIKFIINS

Turning to `Cc1cc(S(=O)(=O)N[C@@H](C(=O)NO)C(C)C)ccc1F` [N-hydroxy-2(R)-[(4-fluoro-3-methylphenylsulfonyl)]amino-3-methylbutyramide], the pIC50 (in general, the negative decadic logarithm of the IC50, by convention in mol/L) is 6.89.
